Data: the CheMixHub viscosity set

Test: xn = mol fraction of the nth substance listed

C1CCCCC1 + CCO
Conditions	viscosity [mPa·s]
293.15 K, 101.3 kPa, x1 = 0.0565	1.143
293.15 K, 101.3 kPa, x1 = 0.2674	1.028
293.15 K, 101.3 kPa, x1 = 0.3539	0.9953
293.15 K, 101.3 kPa, x1 = 0.4506	0.9698
293.15 K, 101.3 kPa, x1 = 0.5626	0.9436
293.15 K, 101.3 kPa, x1 = 0.6898	0.9184
293.15 K, 101.3 kPa, x1 = 0.8348	0.9099
298.15 K, 101 kPa, x2 = 0.0396	0.871
298.15 K, 101 kPa, x2 = 0.0718	0.867
298.15 K, 101 kPa, x2 = 0.1435	0.851
298.15 K, 101 kPa, x2 = 0.3225	0.839
298.15 K, 101 kPa, x2 = 0.4832	0.864
298.15 K, 101 kPa, x2 = 0.6269	0.901
298.15 K, 101 kPa, x2 = 0.7067	0.923
298.15 K, 101 kPa, x2 = 0.8205	0.967
298.15 K, 101.3 kPa, x1 = 0.0565	1.037
298.15 K, 101.3 kPa, x1 = 0.1188	0.9995
298.15 K, 101.3 kPa, x1 = 0.1894	0.9602
298.15 K, 101.3 kPa, x1 = 0.2674	0.9303
298.15 K, 101.3 kPa, x1 = 0.3539	0.9067
298.15 K, 101.3 kPa, x1 = 0.4506	0.8821
298.15 K, 101.3 kPa, x1 = 0.5626	0.8589
298.15 K, 101.3 kPa, x1 = 0.6898	0.8388
298.15 K, 101.3 kPa, x1 = 0.8348	0.8319
298.15 K, 101.33 kPa, x1 = 0.0999	1.003
298.15 K, 101.33 kPa, x1 = 0.1993	0.951
298.15 K, 101.33 kPa, x1 = 0.2995	0.923
298.15 K, 101.33 kPa, x1 = 0.3987	0.892
298.15 K, 101.33 kPa, x1 = 0.5003	0.872
298.15 K, 101.33 kPa, x1 = 0.55	0.861
298.15 K, 101.33 kPa, x1 = 0.6011	0.851
298.15 K, 101.33 kPa, x1 = 0.7014	0.831
298.15 K, 101.33 kPa, x1 = 0.803	0.826
298.15 K, 101.33 kPa, x1 = 0.9006	0.84
303.15 K, 101.3 kPa, x1 = 0.0565	0.947
303.15 K, 101.3 kPa, x1 = 0.1188	0.9133
303.15 K, 101.3 kPa, x1 = 0.1894	0.8784
303.15 K, 101.3 kPa, x1 = 0.2674	0.8522
303.15 K, 101.3 kPa, x1 = 0.3539	0.8288
303.15 K, 101.3 kPa, x1 = 0.4506	0.8084
303.15 K, 101.3 kPa, x1 = 0.5626	0.786
303.15 K, 101.3 kPa, x1 = 0.6898	0.7655
303.15 K, 101.3 kPa, x1 = 0.8348	0.7647
303.15 K, 101.33 kPa, x2 = 0.0952	0.7883
303.15 K, 101.33 kPa, x2 = 0.1976	0.7705
303.15 K, 101.33 kPa, x2 = 0.2988	0.7735
303.15 K, 101.33 kPa, x2 = 0.3894	0.7762
303.15 K, 101.33 kPa, x2 = 0.4879	0.7852
303.15 K, 101.33 kPa, x2 = 0.5929	0.8063
303.15 K, 101.33 kPa, x2 = 0.7828	0.8609
303.15 K, 101.33 kPa, x2 = 0.9018	0.921
308.15 K, 101 kPa, x2 = 0.0396	0.741
308.15 K, 101 kPa, x2 = 0.0718	0.729
308.15 K, 101 kPa, x2 = 0.1435	0.716
308.15 K, 101 kPa, x2 = 0.3225	0.707
308.15 K, 101 kPa, x2 = 0.4832	0.726
308.15 K, 101 kPa, x2 = 0.6269	0.752
308.15 K, 101 kPa, x2 = 0.7067	0.772
308.15 K, 101 kPa, x2 = 0.8205	0.807
308.15 K, 101 kPa, x2 = 0.8789	0.835
308.15 K, 101 kPa, x2 = 0.9548	0.875
308.15 K, 101.3 kPa, x1 = 0.0565	0.8683
308.15 K, 101.3 kPa, x1 = 0.1188	0.8383
308.15 K, 101.3 kPa, x1 = 0.1894	0.8039
308.15 K, 101.3 kPa, x1 = 0.2674	0.7793
308.15 K, 101.3 kPa, x1 = 0.3539	0.7578
308.15 K, 101.3 kPa, x1 = 0.4506	0.7384
308.15 K, 101.3 kPa, x1 = 0.5626	0.7191
308.15 K, 101.3 kPa, x1 = 0.6898	0.7052
308.15 K, 101.3 kPa, x1 = 0.8348	0.7051
318.15 K, 101 kPa, x2 = 0.0396	0.632
318.15 K, 101 kPa, x2 = 0.0718	0.627
318.15 K, 101 kPa, x2 = 0.1435	0.614
318.15 K, 101 kPa, x2 = 0.3225	0.601
318.15 K, 101 kPa, x2 = 0.4832	0.616
318.15 K, 101 kPa, x2 = 0.6269	0.634
318.15 K, 101 kPa, x2 = 0.7067	0.649
318.15 K, 101 kPa, x2 = 0.8205	0.68
318.15 K, 101 kPa, x2 = 0.8789	0.701
318.15 K, 101 kPa, x2 = 0.9548	0.736

O=C(O)c1ccccc1 + CC(C)O
viscosity [mPa·s], 101 kPa
Conditions	x1 = 0.000601	x1 = 0.00181	x1 = 0.00276	x1 = 0.0042	x1 = 0.00508	x1 = 0.005992
298.15 K	2.579	2.574	2.569	2.562	2.559	2.556
308.15 K	1.932	1.927	1.922	1.916	1.914	1.912
318.15 K	1.496	1.49	1.486	1.481	1.479	1.477

C1CCCCC1 + CCC(C)O
viscosity [mPa·s], 101.33 kPa
Conditions	298.15 K	303.15 K	313.15 K
x1 = 0.0998	2.334	–	1.442
x1 = 0.2045	1.841	–	1.19
x1 = 0.3002	1.524	–	1.023
x1 = 0.4007	1.285	–	0.8968
x1 = 0.4995	1.116	–	0.8098
x1 = 0.6	1.001	–	0.7497
x1 = 0.7028	0.9323	–	0.7106
x1 = 0.8005	0.8895	–	0.6896
x1 = 0.9036	0.872	–	0.6801
x2 = 0.1002	–	0.8606	–
x2 = 0.1978	–	0.9196	–
x2 = 0.3031	–	1.004	–
x2 = 0.4019	–	1.107	–
x2 = 0.4961	–	1.244	–
x2 = 0.5974	–	1.435	–
x2 = 0.695	–	1.68	–
x2 = 0.799	–	1.996	–
x2 = 0.8924	–	2.321	–
